Data set [1] is described as follows: Spinal cord detection of fluorescent PSD-95 inhibitors. To be noted: mouse, in vivo. It counts as in vivo, mice. On the procedure: To investigate if AB143 and AB145 are able to enter spinal cord tissue, they were administered to the mice by intraperitoneal injection (30 mg/kg). The drug-treated mice were decapitated 30 min after injection, and the spinal cord was carefully dissected out, to which 5% trichloroacetic acid (TCA) (300 μL per 0.1 g tissue) was added and the tissue homogenized with an ultrasonic homogenizer (on ice). The homogenated tissue was vortexed and centrifuged for 10 min (20000 g at 4° C.). The supernatant was transferred to a test tube and evaporated, and the residue was reconstituted in water and its fluoresence intensity was determined by using a fluorescence plate reader (excitation/emission:470/525 nm). For quantification of the compounds, a standard curve was prepared by spiking a known amount of AB143 and AB145 into spinal cord tissue from control mice prior to homogenization, followed by work-up and analysis similar to the drug-treated mice.

A further data set has as its target T1, PDZ1-2 of PSD-95 (Homo sapiens, UniProt P78352).
T1 construct: made in house; host or cells: E. coli BL21-DE3 pLysS
Nature of the data set: Fluorescence polarization (FP) assay, affinity for PDZ1-2 of PSD-95. The data set is classed as binding. The note with it: for Ki: probe AB143 0.5 nM, PDZ1-2 […], IC50 converted to Ki. The text has this: VI.i. Fluorescence Polarization (FP) Assay: as described below, Example 1 provides a convenient and reliable way to monitor and evaluate the inhibitor properties of a PSD-95 inhibitor of the invention. The FP assay allows a wide range of peptide analogues to be tested and compared with respect to their interaction with PDZ domains, and their specificity with respect to the tandem PDZ1-2 of PSD-95. PDZ1-2 is expressed using standard recombinant DNA technology known to those skilled in the art.
More specifically, the assay is based on a heterologous competition binding assay, where the affinity measured as IC50 of a given (non-fluorescent) peptide analogue for a PDZ domain is measured in the presence of a fixed concentration of a fluorescent labeled dimeric ligand (AB143; FIG. 4). Determined IC50 values are converted to Ki values (Nikolovska-Coleska et al, Anal. Biochem. 2004, 332, p. 261-273). The 5-FAM fluorophore may be attached to the dimeric ligand by coupling with HATU or HBTU.
The cDNA coding for PSD-95 PDZ1-2 tandem (corresponding to residues 61-249 in the human full-length PSD95α without exon 4b) were amplified by inverted PCR and cloned in a modified His-tagged pRSET vector (Invitrogen, Carlsbad, Calif., USA). The encoded PDZ1-2 peptide further comprised the sequence, […] (SEQ ID NO: 14), which was used as a tag for purification (His-tag), and the DNA coding sequences and encoded proteins are designated as follows: HIS-PDZ1-2 DNA [SEQ ID NO: 1] encoding HIS-PDZ1-2 protein [SEQ ID NO: 2]. Competent E. coli bacteria (BL21-DE3, pLysS) were transformed with PDZ1-2 expressing construct and grown overnight on agar plates containing ampicillin (100 μg/mL) and chloramphenicol (35 μg/mL) at 37° C. Colonies were picked and used to inoculate bacterial cultures (LB medium with 50 μg/mL ampicillin). These were shaken while being incubated at 37° C. until A600 of the culture reached 0.45, at which point 1 mM isopropyl β-D-1-thiogalactopyranoside was added. Induced cultures were incubated over night at 30° C. (PDZ1-2). Cells were harvested by spinning at 10,000 g for 10 min at 4° C. and re-suspended in lysis buffer (50 mM Tris/HCL pH 7.5, 1 mM PMSF, 25 μg/ml DNAse, 40 mM Mg2SO4). The cells were destroyed using a cell disruptor apparatus at 26 KPsi. The cell lysate was spun down at 35,000 g for 1 hour and the supernatant filtered with a 0.45 μm and a 0.22 μm filter. Purification of expressed PDZ1-2 peptide was performed with first a nickel (II)-charged column (HisTrap™ HP, GE Healthcare, UK) equilibrated with Tris-buffer (Tris/HCl buffer 50 mM, pH 7.5) followed by gel-filtration. For gel-filtration the PDZ1-2 sample was loaded on a Superdex™ 75 HR 10/30 column (GE Healthcare, UK) equilibrated with Tris buffer (20 mM Tris/HCL, pH 7.5) with a constant flow rate at 0.5 mL/min. The relevant fractions were analyzed on a SDS-PAGE gel stained by a standard silver staining protocol. The final purification was analyzed by electrospray ionization liquid chromatography-mass spectrometry (ESI-LC/MS) to get the exact molecular weight and thereby verify the identity of the PDZ1-2 domain. Molar extinction coefficients were found by amino acids analysis (Alphalyse, Odense, Denmark) and thereafter used for measuring protein concentrations. […]
An in vitro affinity measurement assay was developed based on the fluorescence polarization principle in order to provide affinity constants (Ki values) between synthesized ligands (e.g. dimeric inhibitors) and PDZ1-2 of PSD-95. […]
In general terms: Polarisation of emitted light reports the rotation of a fluorescent probe.

Data set [2] relates to CFA-induced mechanical allodynia/hyperalgesia. The data set can be described thus: Complete Freund's adjuvant (CFA) inflammatory pain, von Frey test. It counts as in vivo, mice.

Broadly, the Ki is a dissociation constant, usually derived from enzyme kinetics or from competition with a known ligand. Broadly, the Kd is the free concentration of one partner at which half of the binding sites on the other are occupied at equilibrium, for simple one-to-one binding.

“Also recorded” adds a separate entry of the source. Like-named read-outs stand apart in the source and are kept apart here.

T1 sequence (P78352 with tags, fused parts or gaps): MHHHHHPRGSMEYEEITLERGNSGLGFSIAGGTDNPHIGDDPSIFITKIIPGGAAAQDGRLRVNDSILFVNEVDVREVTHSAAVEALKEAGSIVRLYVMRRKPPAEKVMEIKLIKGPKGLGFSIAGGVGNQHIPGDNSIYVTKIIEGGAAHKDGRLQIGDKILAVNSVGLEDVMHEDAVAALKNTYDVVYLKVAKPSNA

`CC[C@H](C)[C@H](NC(=O)CCOCCOCCOCCOCCOCCOCCOCCC(=O)N[C@H](C(=O)N[C@@H](CCC(=O)O)C(=O)N[C@@H](CO)C(=O)N[C@@H](CC(=O)O)C(=O)N[C@H](C(=O)O)C(C)C)[C@@H](C)CC)C(=O)N[C@@H](CCC(=O)O)C(=O)N[C@@H](CO)C(=O)N[C@@H](CC(=O)O)C(=O)N[C@H](C(=O)O)C(C)C` [AB122, PEG6(IESDV)2]: in data set [1], the “ability to enter spinal cord tissue (concluded from fluorescent surrogates)” value is reported as “able to reach their target, PSD-95, in the spinal cord”.
Same read-out and setting: then `CC[C@H](C)[C@H](NC(=O)CCOCCOCCOCCOCCOCCC(=O)N[C@H](C(=O)N[C@@H](CCC(=O)O)C(=O)N[C@@H](CO)C(=O)N[C@@H](CC(=O)O)C(=O)N[C@H](C(=O)O)C(C)C)[C@@H](C)CC)C(=O)N[C@@H](CCC(=O)O)C(=O)N[C@@H](CO)C(=O)N[C@@H](CC(=O)O)C(=O)N[C@H](C(=O)O)C(C)C` [AB123, PEG4(IESDV)2], with “able to reach their target, PSD-95, in the spinal cord”.
With `CC[C@H](C)[C@H](NC(=O)CCOCCOCCOCCOCCOCCC(=O)N[C@H](C(=O)N[C@@H](CCC(=O)O)C(=O)N[C@H](C(=O)N[C@@H](C)C(=O)N[C@H](C(=O)O)C(C)C)[C@@H](C)O)[C@@H](C)CC)C(=O)N[C@@H](CCC(=O)O)C(=O)N[C@H](C(=O)N[C@@H](C)C(=O)N[C@H](C(=O)O)C(C)C)[C@@H](C)O` [AB125, PEG4(IETAV)2], the inhibition constant Ki on PDZ1-2 of PSD-95 (heterologous competition, TBS pH 7.4, read-out: Ki ± SEM, affinity towards PDZ1-2 of PSD-95) is around 9.5 nM. For the same compound, the CFA-induced hyperalgesia result in data set [2] (1, 3 and 10 mg/kg given 24 hours after CFA-injection, at 72 hours) is listed as “significantly reversed”; in data set [2] (3 and 10 mg/kg given 24 hours after CFA-injection, after 1 hour), “significant reversal of the CFA-induced hyperalgesia”; in data set [2] (3 and 10 mg/kg given 24 hours after CFA-injection, after 24 hours), “significant reversal was still observed”; in data set [2] (3 and 10 mg/kg, given simultaneously with CFA, after 1 hour), “significantly reversed the CFA-induced hyperalgesia”; in data set [2] (3 and 10 mg/kg, given simultaneously with CFA, after 24 hours), “significant reversal was still observed”. Further, the “CFA-induced pain response (paw withdrawal threshold)” value in data set [2] (3, 10 and 30 mg/kg i.p. simultaneously with CFA, 24 hours afterwards) is “reduces CFA-induced pain response; also recorded: differed significantly from saline-treated mice”. Further, the “duration of reversal of CFA-induced hyperalgesia” value in data set [2] (administered 24 hours after CFA treatment) is given as “at least 3 days”. Also, the CFA-induced mechanical hyperalgesia result in data set [2] (administered concurrently with CFA, 1 hour and 24 hours after treatment) is given as “prevented the development of CFA-induced mechanical hyperalgesia”.
As to `CC[C@H](C)[C@H](NC(=O)CCOCCOCCNCCOCCOCCC(=O)N[C@H](C(=O)N[C@@H](CCC(=O)O)C(=O)N[C@H](C(=O)N[C@@H](C)C(=O)N[C@H](C(=O)O)C(C)C)[C@@H](C)O)[C@@H](C)CC)C(=O)N[C@@H](CCC(=O)O)C(=O)N[C@H](C(=O)N[C@@H](C)C(=O)N[C@H](C(=O)O)C(C)C)[C@@H](C)O` [AB141, NPEG4(IETAV)2], in data set [1], the “ability to enter spinal cord tissue (concluded from fluorescent surrogates)” value is recorded as “able to reach their target, PSD-95, in the spinal cord”.
With `CC[C@H](C)[C@H](NC(=O)CCOCCOCCN(CCOCCOCCC(=O)N[C@H](C(=O)N[C@@H](CCC(=O)O)C(=O)N[C@H](C(=O)N[C@@H](C)C(=O)N[C@H](C(=O)O)C(C)C)[C@@H](C)O)[C@@H](C)CC)C(=O)c1ccc2c(c1)C(=O)OC21c2ccc(O)cc2Oc2cc(O)ccc21)C(=O)N[C@@H](CCC(=O)O)C(=O)N[C@H](C(=O)N[C@@H](C)C(=O)N[C@H](C(=O)O)C(C)C)[C@@H](C)O` [AB143, F-NPEG4(IETAV)2], the Kd on PDZ1-2 of PSD-95 (saturation binding, probe 0.5 nM, TBS pH 7.4, read-out: Kd towards PDZ1-2 of PSD-95) was determined as 7.8 ± 0.11 nM. Besides, the “fluorescence in spinal cord tissue compared to saline-treated mice” value in data set [1] is “clear and distinct fluorescence increase”.
On to `CC(C)[C@H](NC(=O)[C@H](CC(=O)O)NC(=O)[C@@H](NC(=O)[C@H](CCC(=O)O)NC(=O)[C@H](CCCCNC(=O)[C@H](CCCNC(=N)N)NC(=O)[C@H](CCCNC(=N)N)NC(=O)[C@H](CCCNC(=N)N)NC(=O)[C@H](CCC(N)=O)NC(=O)[C@H](CCCNC(=N)N)NC(=O)[C@H](CCCNC(=N)N)NC(=O)[C@H](CCCCN)NC(=O)[C@H](CCCCN)NC(=O)[C@H](CCCNC(=N)N)NC(=O)CNC(=O)[C@@H](N)Cc1ccc(O)cc1)NC(=O)CCOCCOCCOCCOCCOCCC(=O)N[C@@H](CCCCNC(=O)[C@H](CCCNC(=N)N)NC(=O)[C@H](CCCNC(=N)N)NC(=O)[C@H](CCCNC(=N)N)NC(=O)[C@H](CCC(N)=O)NC(=O)[C@H](CCCNC(=N)N)NC(=O)[C@H](CCCNC(=N)N)NC(=O)[C@H](CCCCN)NC(=O)[C@H](CCCCN)NC(=O)[C@H](CCCNC(=N)N)NC(=O)CNC(=O)[C@@H](N)Cc1ccc(O)cc1)C(=O)N[C@@H](CCC(=O)O)C(=O)N[C@H](C(=O)N[C@@H](CC(=O)O)C(=O)N[C@H](C(=O)O)C(C)C)[C@@H](C)O)[C@@H](C)O)C(=O)O` [AB144_H], for which, on PDZ1-2 of PSD-95 (Ki ± SEM, affinity towards PDZ1-2 of PSD-95, heterologous competition, TBS pH 7.4), the inhibitory constant (Ki) is 24 ± 2 nM. Moreover, at PDZ1-2 of PSD-95 (PDZ1-2 of PSD-95, from Ki), the “fold lower affinity than AB144” value is recorded as around 5 fold.

Source of the values: patent US9139615B2, “High-affinity, dimeric inhibitors of PSD-95 as efficient neuroprotectants against ischemic brain damage and for treatment of pain” (University of Copenhagen, priority 2011, dated 2015).
